This note sets out measurements from ChEMBL document CHEMBL4387741, “Optimization of novel reversible Bruton's tyrosine kinase inhibitors identified using Tethering-fragment-based screens” (Bioorg Med Chem, 2019).

Experiment [1] has as its target Peripheral plasma membrane protein CASK (Homo sapiens) (UniProt O14936). In words: Inhibition of wild-type human partial length CASK (M1 to H315 residues) expressed in mammalian expression system at 1 uM by Kinomescan method relative to control.
The target in experiment [2] is Casein kinase I isoform gamma-3 (Homo sapiens) (UniProt Q9Y6M4). In words: Inhibition of wild-type human full length CSNK1G3 (M1 to K447 residues) expressed in bacterial expression system at 1 uM by Kinomescan method relative to control.
Casein kinase I isoform gamma-3 (Homo sapiens), sequence (Q9Y6M4 whole entry, looked up, the tested form may be a part, canonical isoform): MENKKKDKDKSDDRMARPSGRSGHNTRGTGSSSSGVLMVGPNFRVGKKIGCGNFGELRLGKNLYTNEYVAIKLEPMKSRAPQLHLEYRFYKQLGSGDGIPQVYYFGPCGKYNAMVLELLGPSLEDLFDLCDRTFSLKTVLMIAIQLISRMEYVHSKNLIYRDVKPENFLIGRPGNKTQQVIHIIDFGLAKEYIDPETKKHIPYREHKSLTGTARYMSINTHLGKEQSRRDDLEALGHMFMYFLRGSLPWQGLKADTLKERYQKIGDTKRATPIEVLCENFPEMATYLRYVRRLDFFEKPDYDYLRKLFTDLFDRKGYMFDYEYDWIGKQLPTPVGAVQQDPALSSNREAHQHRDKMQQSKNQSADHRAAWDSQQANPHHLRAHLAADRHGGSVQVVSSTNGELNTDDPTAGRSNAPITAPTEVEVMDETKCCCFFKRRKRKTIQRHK
In experiment [3] the target is Ephrin type-A receptor 8 (Homo sapiens) (UniProt P29322). In words: Inhibition of wild-type human partial length EPHA8 (Q608 to C920 residues) expressed in bacterial expression system at 1 uM by Kinomescan method relative to control.
The target in experiment [4] is Tyrosine-protein kinase Fes/Fps (Homo sapiens) (UniProt P07332). As to the kind of experiment: Inhibition of wild-type human partial length FES (I527 to R822 residues) expressed in bacterial expression system at 1 uM by Kinomescan method relative to control.
The target of experiment [5] is Receptor-type tyrosine-protein kinase FLT3 (Homo sapiens) (UniProt P36888). As to the kind of experiment: Inhibition of wild-type human partial length autoinhibited FLT3 (H564 to Y969 residues) expressed in mammalian expression system at 1 uM by Kinomescan method relative to control.
Experiment [6] has as its target Dual specificity mitogen-activated protein kinase kinase 4 (Homo sapiens) (UniProt P45985). As to the kind of experiment: Inhibition of wild-type human partial length MEK4 (S84 to D399 residues) expressed in mammalian expression system at 1 uM by Kinomescan method relative to control.
For experiment [7], the target named is Serine/threonine-protein kinase PAK 6 (Homo sapiens) (UniProt Q9NQU5). As to the kind of experiment: Inhibition of wild-type human partial length PAK6 (N298 to C681 residues) expressed in bacterial expression system at 1 uM by Kinomescan method relative to control.
In experiment [8] the test system is Proto-oncogene tyrosine-protein kinase receptor Ret (Homo sapiens), P07949 [V804L]. As to the kind of experiment: Inhibition of human partial length RET V804L mutant (E713 to D1014 residues) expressed in bacterial expression system at 1 uM by Kinomescan method relative to control.
The target of experiment [9] is Ribosomal protein S6 kinase alpha-4 (Homo sapiens) (UniProt O75676). As to the kind of experiment: Inhibition of wild-type human partial length N-terminal RPS6KA4 kinase domain 1 expressed in bacterial expression system at 1 uM by Kinomescan method relative to control.
In experiment [10] the target is Serine/threonine-protein kinase Sgk1 (Homo sapiens) (UniProt O00141). In words: Inhibition of wild-type human partial length SGK (I60 to L431 residues) expressed in mammalian expression system at 1 uM by Kinomescan method relative to control.
Experiment [11] deals with Serine/threonine-protein kinase SIK1 (Homo sapiens) (UniProt P57059). As to the kind of experiment: Inhibition of wild-type human partial length SIK (M1 to Y304 residues) expressed in bacterial expression system at 1 uM by Kinomescan method relative to control.
For experiment [12], the target named is Serine/threonine-protein kinase ULK1 (Homo sapiens) (UniProt O75385). In words: Inhibition of wild-type human partial length ULK1 (M1 to T309 residues) expressed in mammalian expression system at 1 uM by Kinomescan method relative to control.
Experiment [13] addresses Serine/threonine-protein kinase WNK1 (Homo sapiens) (UniProt Q9H4A3). As to the kind of experiment: Inhibition of wild-type human partial length WNK1 (Q194 to A490 residues) expressed in mammalian expression system at 1 uM by Kinomescan method relative to control.
Experiment [14] deals with AP2-associated protein kinase 1 (Homo sapiens) (UniProt Q2M2I8). In words: Inhibition of human wild-type AAK1 (G25 to L333 residues) expressed in bacterial expression system at 10 uM by Kinomescan method relative to control.
AP2-associated protein kinase 1 (Homo sapiens), sequence (Q2M2I8 whole entry, looked up, the tested form may be a part): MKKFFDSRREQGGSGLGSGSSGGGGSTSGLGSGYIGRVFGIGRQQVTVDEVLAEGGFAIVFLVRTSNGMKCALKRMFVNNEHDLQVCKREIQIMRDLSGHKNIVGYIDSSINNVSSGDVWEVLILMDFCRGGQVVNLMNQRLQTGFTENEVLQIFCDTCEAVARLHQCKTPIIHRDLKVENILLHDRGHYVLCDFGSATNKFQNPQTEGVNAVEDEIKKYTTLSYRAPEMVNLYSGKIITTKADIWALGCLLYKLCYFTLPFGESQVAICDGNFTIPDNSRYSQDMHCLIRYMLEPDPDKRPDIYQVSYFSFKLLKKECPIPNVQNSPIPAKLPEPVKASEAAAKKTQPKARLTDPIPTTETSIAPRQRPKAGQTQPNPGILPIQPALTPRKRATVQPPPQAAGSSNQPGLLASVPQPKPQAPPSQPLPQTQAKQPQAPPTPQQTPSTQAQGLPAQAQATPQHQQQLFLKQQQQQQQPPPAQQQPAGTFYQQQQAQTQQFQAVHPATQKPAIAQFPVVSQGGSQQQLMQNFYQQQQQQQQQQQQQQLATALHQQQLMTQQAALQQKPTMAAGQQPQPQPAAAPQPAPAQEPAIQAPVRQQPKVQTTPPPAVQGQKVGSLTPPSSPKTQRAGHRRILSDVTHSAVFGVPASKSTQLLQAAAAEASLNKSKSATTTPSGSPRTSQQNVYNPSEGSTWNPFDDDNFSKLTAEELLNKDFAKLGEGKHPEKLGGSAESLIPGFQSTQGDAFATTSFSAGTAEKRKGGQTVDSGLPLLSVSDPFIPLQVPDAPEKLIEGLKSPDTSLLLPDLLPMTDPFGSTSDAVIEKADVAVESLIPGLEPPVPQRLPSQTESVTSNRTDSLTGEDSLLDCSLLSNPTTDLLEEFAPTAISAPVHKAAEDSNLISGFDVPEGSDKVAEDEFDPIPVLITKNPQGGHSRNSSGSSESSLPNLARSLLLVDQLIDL
For experiment [15], the target named is Tyrosine-protein kinase ABL1 (Homo sapiens) (UniProt P00519). In words: Inhibition of wild-type human non-phosphorylated ABL1 (S229 to K512 residues) expressed in mammalian expression system at 10 uM by Kinomescan method relative to control.
Experiment [16] has as its target Dual specificity protein kinase CLK1 (Homo sapiens) (UniProt P49759). In words: Inhibition of wild-type human full length CLK1 (M1 to I484 residues) expressed in bacterial expression system at 10 uM by Kinomescan method relative to control.
Experiment [17] deals with Serine/threonine-protein kinase DCLK3 (Homo sapiens) (UniProt Q9C098). In words: Inhibition of wild-type human partial length DCAMKL3 (E140 to V628 residues) expressed in bacterial expression system at 10 uM by Kinomescan method relative to control.
For experiment [18], the target named is Dual specificity tyrosine-phosphorylation-regulated kinase 2 (Homo sapiens) (UniProt Q92630). In words: Inhibition of wild-type human full length DYRK2 (M1 to S528 residues) expressed in mammalian expression system at 10 uM by Kinomescan method relative to control.
The target of experiment [19] is Ephrin type-A receptor 2 (Homo sapiens) (UniProt P29317). In words: Inhibition of wild-type human partial length EPHA2 (T593 to V891 residues) expressed in bacterial expression system at 10 uM by Kinomescan method relative to control.
The target in experiment [20] is Mitogen-activated protein kinase 3 (Homo sapiens) (UniProt P27361). In words: Inhibition of wild-type human full length ERK1 (M1 to P379 residues) expressed in bacterial expression system at 10 uM by Kinomescan method relative to control.
For experiment [21], the system named is Receptor-type tyrosine-protein kinase FLT3 (Homo sapiens), P36888 [D835V]. In words: Inhibition of human partial length FLT3 D835V mutant (V592 to Y969 residues) expressed in bacterial expression system at 10 uM by Kinomescan method relative to control.
Experiment [22] has as its target Glycogen synthase kinase-3 alpha (Homo sapiens) (UniProt P49840). As to the kind of experiment: Inhibition of wild-type human full length GSK3A (M1 to S483 residues) expressed in bacterial expression system at 10 uM by Kinomescan method relative to control.
Experiment [23] concerns Hepatocyte growth factor receptor (Homo sapiens), P08581 [Y1235D]. In words: Inhibition of human partial length MET Y1235D mutant (D1010 to S1367 residues) expressed in bacterial expression system at 10 uM by Kinomescan method relative to control.
Hepatocyte growth factor receptor (Homo sapiens), P08581 [Y1235D], sequence (P08581 whole entry Y1235D, the tested form may be a part): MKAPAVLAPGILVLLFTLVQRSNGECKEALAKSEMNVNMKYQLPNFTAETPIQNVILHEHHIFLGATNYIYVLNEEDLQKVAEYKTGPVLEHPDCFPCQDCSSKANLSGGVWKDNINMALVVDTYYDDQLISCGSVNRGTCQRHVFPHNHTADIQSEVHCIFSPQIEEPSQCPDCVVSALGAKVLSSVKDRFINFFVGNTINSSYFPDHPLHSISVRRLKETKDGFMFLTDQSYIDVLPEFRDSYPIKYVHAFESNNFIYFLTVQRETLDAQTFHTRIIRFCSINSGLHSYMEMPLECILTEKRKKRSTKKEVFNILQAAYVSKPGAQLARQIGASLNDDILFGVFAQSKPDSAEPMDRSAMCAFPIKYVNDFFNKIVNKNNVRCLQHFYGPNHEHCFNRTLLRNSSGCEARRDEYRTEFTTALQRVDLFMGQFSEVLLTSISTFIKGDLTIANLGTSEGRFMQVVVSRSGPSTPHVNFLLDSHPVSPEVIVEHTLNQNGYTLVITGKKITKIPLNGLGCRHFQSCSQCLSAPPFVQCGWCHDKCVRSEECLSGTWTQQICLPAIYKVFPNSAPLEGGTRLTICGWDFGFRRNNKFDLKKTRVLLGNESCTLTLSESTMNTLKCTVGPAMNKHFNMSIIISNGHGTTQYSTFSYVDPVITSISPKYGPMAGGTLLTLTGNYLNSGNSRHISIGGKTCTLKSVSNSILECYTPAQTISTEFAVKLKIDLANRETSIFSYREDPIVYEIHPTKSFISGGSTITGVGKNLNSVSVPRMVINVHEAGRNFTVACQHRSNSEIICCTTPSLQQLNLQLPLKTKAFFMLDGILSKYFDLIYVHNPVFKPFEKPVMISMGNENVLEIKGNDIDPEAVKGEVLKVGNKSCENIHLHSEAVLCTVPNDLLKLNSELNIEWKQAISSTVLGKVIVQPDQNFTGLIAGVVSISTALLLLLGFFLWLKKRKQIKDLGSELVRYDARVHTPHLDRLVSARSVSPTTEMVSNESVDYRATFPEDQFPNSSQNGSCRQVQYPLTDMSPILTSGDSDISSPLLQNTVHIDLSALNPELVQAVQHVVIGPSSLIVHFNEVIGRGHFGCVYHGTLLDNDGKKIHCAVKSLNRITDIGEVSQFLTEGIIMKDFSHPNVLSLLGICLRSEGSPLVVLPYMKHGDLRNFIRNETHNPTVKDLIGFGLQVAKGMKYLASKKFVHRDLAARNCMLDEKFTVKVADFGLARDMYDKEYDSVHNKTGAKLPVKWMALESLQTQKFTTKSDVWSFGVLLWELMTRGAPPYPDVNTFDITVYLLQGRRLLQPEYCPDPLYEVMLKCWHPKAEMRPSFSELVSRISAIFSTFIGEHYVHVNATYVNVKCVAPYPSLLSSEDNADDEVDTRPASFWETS
Experiment [24] addresses Serine/threonine-protein kinase PknB (Mycobacterium tuberculosis) (UniProt P9WI81). As to the kind of experiment: Inhibition of wild-type Mycobacterium tuberculosis partial length PKNB (M1 to G279 residues) expressed in mammalian expression system at 10 uM by Kinomescan method relative to control.
In experiment [25] the target is Ribosomal protein S6 kinase alpha-2 (Homo sapiens) (UniProt Q15349). In words: Inhibition of wild-type human partial length N-terminal RSK3 kinase domain 1 (M1 to Q385 residues) expressed in bacterial expression system at 10 uM by Kinomescan method relative to control.
Ribosomal protein S6 kinase alpha-2 (Homo sapiens), sequence (Q15349 whole entry, the tested form may be a part): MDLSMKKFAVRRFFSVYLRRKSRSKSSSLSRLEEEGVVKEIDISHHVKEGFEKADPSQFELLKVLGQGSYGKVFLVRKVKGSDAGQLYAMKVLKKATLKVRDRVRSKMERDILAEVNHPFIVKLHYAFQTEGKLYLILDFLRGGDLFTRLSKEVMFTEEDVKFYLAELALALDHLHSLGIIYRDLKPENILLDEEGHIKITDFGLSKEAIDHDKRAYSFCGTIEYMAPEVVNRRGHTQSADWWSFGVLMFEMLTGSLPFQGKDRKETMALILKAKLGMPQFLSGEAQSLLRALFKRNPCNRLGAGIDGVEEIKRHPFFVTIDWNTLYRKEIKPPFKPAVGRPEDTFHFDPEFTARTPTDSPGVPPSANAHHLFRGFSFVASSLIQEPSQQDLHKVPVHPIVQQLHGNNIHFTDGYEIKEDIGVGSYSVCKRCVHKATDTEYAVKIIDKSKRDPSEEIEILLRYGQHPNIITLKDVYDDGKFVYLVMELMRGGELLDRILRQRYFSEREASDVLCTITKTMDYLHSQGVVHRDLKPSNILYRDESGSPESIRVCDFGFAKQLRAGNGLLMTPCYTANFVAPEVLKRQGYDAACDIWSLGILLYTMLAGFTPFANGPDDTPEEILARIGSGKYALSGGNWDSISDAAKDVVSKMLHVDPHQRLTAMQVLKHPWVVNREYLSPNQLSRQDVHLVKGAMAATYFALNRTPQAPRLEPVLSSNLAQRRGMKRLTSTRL
Experiment [26] concerns the target Serine/threonine-protein kinase SIK2 (Homo sapiens) (UniProt Q9H0K1). As to the kind of experiment: Inhibition of wild-type human full length SIK2 (M1 to N926 residues) expressed in bacterial expression system at 10 uM by Kinomescan method relative to control.
Experiment [27] addresses Activated CDC42 kinase 1 (Homo sapiens) (UniProt Q07912). As to the kind of experiment: Inhibition of wild-type human partial length TNK2 (S159 to D474 residues) expressed in bacterial expression system at 10 uM by Kinomescan method relative to control.

Peripheral plasma membrane protein CASK (Homo sapiens), sequence (O14936 whole entry, the tested form may be a part, canonical isoform): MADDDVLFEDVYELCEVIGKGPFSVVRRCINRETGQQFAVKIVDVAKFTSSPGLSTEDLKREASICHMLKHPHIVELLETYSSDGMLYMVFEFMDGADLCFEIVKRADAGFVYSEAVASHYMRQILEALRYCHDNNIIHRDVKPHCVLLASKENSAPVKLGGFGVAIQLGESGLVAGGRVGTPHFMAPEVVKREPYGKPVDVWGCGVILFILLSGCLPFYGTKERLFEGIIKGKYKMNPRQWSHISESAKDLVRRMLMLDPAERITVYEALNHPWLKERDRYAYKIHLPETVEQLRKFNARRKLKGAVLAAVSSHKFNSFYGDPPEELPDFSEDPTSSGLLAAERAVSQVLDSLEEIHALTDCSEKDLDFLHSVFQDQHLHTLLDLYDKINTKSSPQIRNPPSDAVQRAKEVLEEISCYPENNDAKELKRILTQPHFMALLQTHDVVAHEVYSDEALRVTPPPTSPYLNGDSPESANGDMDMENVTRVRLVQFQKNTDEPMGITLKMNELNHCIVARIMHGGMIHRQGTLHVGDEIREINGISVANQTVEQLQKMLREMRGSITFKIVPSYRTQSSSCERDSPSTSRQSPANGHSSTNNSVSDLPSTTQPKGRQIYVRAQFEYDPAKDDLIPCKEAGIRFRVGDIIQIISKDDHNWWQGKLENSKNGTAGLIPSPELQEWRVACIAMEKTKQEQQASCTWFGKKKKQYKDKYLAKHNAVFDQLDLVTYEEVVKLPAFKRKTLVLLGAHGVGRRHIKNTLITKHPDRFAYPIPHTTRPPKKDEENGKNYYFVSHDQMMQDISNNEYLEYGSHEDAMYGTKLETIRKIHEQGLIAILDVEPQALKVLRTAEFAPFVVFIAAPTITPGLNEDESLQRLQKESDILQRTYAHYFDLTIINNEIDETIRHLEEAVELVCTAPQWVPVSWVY
Dual specificity protein kinase CLK1 (Homo sapiens), sequence (P49759 whole entry, looked up, the tested form may be a part): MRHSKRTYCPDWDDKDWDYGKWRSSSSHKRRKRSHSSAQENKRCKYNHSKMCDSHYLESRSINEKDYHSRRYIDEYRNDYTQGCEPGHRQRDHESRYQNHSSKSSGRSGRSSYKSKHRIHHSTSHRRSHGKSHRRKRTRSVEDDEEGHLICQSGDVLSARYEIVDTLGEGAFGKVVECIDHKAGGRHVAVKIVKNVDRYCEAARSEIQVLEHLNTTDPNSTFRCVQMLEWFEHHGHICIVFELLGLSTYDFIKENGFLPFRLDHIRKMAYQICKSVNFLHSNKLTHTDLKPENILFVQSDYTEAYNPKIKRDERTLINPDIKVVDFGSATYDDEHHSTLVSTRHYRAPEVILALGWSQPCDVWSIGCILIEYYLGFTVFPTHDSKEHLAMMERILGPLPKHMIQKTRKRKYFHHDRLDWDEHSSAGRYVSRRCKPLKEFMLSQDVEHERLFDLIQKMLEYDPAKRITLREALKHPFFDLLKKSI

Turning to `O=C(Nc1cccc([C@@H]2CN(c3ncnc4[nH]ccc34)CCN2CCO)c1)Nc1c(F)cccc1N1CCCC1`, the inhibition stood at 78% in [1]; 94% in [2]; 100% in experiment [3]; 100% in experiment [4]; 68% in [5]; 7.2% in experiment [6]. Besides, the inhibition in [7] was 100%; in experiment [8], 0.2%; in experiment [9] it was 94%; in [10], 64%; in [11], 55%; in experiment [12] it was 60%. Besides, in experiment [13], the inhibition was determined as 74%.

As for `O=C(Nc1cccc([C@H]2CCCN(c3ncnc4[nH]ccc34)C2)c1)Nc1ccccc1N1CCCC1`, the inhibition is 26% in [14]; 25% in experiment [15]; 68% in experiment [16]; 100% in experiment [17]; 78% in experiment [18]; 50% in experiment [19]. Moreover, the inhibition in experiment [20] came to 100%; in experiment [21], 4.3%; in experiment [22] it was 100%; in experiment [23], 78%; in experiment [24], 29%; in [25], 78%. In addition, the inhibition came out at 84% in [26] and 100% in experiment [27].
